Experimental data reported in ChEMBL document CHEMBL1150819, “Microxine, a new cdc2 kinase inhibitor from the Australian marine sponge Microxina species” (J Nat Prod, 2001).
The source made the active and inactive calls. The calls are words filed in the database; no cut-off is given here.

Experiments:
[1] = target: Cyclin-dependent kinase 1 (Homo sapiens, UniProt P06493)
[2] = test system: P388; assay: Cytotoxicity against mouse P388 cells at 18 uM; type: functional, cell-based
[3] = test system: A549; assay: Cytotoxicity against human A549 cells at 18 uM; type: functional, cell-based
[4] = target: T1, M-phase inducer phosphatase 1 (Homo sapiens) (UniProt P30304); assay: Inhibition of Cdc25a up to 10 uM
T1 sequence (whole entry): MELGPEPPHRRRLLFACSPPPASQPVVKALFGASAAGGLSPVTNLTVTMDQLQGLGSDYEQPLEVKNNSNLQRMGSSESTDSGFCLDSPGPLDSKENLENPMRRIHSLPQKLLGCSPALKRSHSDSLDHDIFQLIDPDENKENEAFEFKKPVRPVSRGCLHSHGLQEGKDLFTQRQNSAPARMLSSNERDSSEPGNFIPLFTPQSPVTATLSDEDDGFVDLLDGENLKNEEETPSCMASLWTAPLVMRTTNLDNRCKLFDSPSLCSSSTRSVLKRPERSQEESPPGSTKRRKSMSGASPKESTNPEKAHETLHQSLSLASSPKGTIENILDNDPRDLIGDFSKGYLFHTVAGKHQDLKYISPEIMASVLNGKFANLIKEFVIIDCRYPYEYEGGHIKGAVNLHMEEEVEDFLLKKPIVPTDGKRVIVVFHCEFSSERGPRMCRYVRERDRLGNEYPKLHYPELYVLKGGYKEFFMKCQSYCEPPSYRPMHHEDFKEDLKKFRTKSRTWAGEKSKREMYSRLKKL

Chain of Cyclin-dependent kinase 1 (P06493 whole entry): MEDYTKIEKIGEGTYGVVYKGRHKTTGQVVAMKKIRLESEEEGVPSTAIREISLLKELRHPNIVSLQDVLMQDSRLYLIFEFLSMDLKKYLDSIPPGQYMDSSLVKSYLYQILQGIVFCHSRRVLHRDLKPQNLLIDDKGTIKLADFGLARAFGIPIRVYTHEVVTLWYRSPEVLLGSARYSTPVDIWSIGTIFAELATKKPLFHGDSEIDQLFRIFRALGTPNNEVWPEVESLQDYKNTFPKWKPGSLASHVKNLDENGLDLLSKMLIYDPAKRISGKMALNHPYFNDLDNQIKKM

IC50 [1]: 13 µM
Activity [4]: inactive
SMILES: Cn1c(=O)[nH]c2ncnc(NCCS(=O)(=O)O)c21 [MICROXINE]
Activity [2]: inactive
Activity [3]: inactive
